System: subjects with no history of cardiovascular disease, blood hs-CRP value of at least 1.0 mg/L
Assay: Hisayama epidemiologic study: events by administration of statin drug and EPA in the high hs-CRP group
Assay type: in vivo, human
From the text: The Hisayama study is an epidemiologic study of cerebral stroke, cardiovascular disease, and the like that has been conducted with the residents of the town of Hisayama town (population, about 8,400) in Kasuya county of Fukuoka prefecture adjacent to Fukuoka city from 1961. The age and occupation distributions of the residents of Hisayama town were almost identical to those of Japan as a whole, and the residents can be regarded as an average group of Japanese people with substantially no bias. Features of the Hisayama study include participation of all residents (who are at least 40 years old), prospective cohort study, examination and home visit by the stuff of the study, consultation rate (at least 80%), autopsy rate (about 80%), and follow-up rate (at least 99%), and the most characteristic feature of this study is the high rate of autopsy. No diagnosis is more accurate than autopsy in finding out the accurate cause of the death, and the precision of the follow up study is also high. In addition, the Hisayama study periodically adds the residents who have reached 40 years old to the group every 5 years, and estimation of influence of the life style transition as well as change of risk factors was thereby enabled.
3,103 residents of 40 years old or older who were registered in 2002 were used for the subject excluding those who have history of cardiovascular disease and those with no data of EPA/AA ratio. Average follow-up period was 5.1 years.
The group with a blood hs-CRP value of at least 1.0 mg/L (high hs-CRP group) was extracted from the entire subjects. The blood hs-CRP value was quantitated by using a commercially available assay kit.
The high hs-CRP group was further divided into 4 groups by the administration and non-administration of the statin drug and the administration and non-administration of the EPA.
In the table, “statin (−)+EPA (−)” means that neither the statin drug nor the EPA was administered to a subject; “statin (+)+EPA (−)” means that the statin drug was administered but not the EPA; “statin (−)+EPA (+)” means that the statin drug was not administered despite the administration of the EPA; and “statin (+)+EPA (+)” means that both the statin drug and the EPA were administered. Furthermore, “event (−)” and “event (+)” […].

[1] = high hs-CRP group, EPA irrespective of statin, statin drug vs no statin within the group with no EPA
[2] = number of subjects, high hs-CRP group (hs-CRP ≧1.0 mg/L), average follow-up 5.1 years

CC/C=C\C/C=C\C/C=C\C/C=C\C/C=C\CCCC(=O)O [EPA, all-cis-5,8,11,14,17-icosapentaenoic acid]
Cerebral stroke event occurrence (in words) (entire subjects, irrespective of administration of the statin drug): no event occurred | Cardiovascular disease event occurrence (in words) [1]: no event occurred | Cerebral stroke event occurrence (in words) [1]: no event occurred | Coronary artery disease event occurrence (in words) [1]: no event occurred | Cardiovascular disease, Event (+) [2]: 0 | Cardiovascular disease, Event (−) [2]: 4 | Cerebral stroke, Event (+) [2]: 0 | Cerebral stroke, Event (−) [2]: 4 | Coronary artery disease, Event (+) [2]: 0 | Coronary artery disease, Event (−) [2]: 4
